# In ChEMBL document CHEMBL1201862, “PubChem BioAssay data set” (2004):
# Active and inactive are the calls of the source.
# Tests used:
# [1] = target: T1, Methionyl-tRNA synthetase, putative (Trypanosoma brucei brucei, UniProt Q38C91); type: functional, Trypanosoma brucei brucei strain 927/4 GUTat10.1
# T1 sequence (Q38C91 whole entry): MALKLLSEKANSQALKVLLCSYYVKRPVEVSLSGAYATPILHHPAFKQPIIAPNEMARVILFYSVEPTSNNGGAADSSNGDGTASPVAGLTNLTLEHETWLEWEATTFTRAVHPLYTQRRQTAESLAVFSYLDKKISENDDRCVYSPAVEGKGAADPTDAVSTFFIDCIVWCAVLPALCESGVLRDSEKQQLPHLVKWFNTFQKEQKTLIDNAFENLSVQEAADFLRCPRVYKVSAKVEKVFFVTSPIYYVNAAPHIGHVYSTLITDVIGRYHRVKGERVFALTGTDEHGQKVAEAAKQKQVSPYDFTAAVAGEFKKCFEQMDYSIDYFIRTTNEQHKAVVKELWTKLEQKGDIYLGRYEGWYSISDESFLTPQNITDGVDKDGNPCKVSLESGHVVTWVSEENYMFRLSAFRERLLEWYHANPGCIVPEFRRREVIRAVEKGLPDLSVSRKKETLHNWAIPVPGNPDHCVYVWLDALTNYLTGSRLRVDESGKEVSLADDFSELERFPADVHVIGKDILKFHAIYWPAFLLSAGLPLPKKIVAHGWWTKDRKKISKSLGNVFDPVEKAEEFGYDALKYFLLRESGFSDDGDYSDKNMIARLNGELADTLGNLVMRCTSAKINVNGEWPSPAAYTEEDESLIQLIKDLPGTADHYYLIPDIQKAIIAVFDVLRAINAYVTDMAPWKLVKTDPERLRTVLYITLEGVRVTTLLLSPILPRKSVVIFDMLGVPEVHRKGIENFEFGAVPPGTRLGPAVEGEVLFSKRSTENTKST
# [2] = target: T1, Methionyl-tRNA synthetase, putative; type: functional, Trypanosoma brucei brucei strain 927/4 GUTat10.1; remark: listed apart in the source
# [3] = Counterscreen for inhibitors of Trypanosoma brucei methionyl tRNA synthetase (MetRS): Luminescence-based cell-based high throughput dose response assay to identify compounds that are cytotoxic to Jurkat human T lymphocyte cells.; type: functional
# [4] = NIH3T3 cell viability loss – ATP luminescence, mouse fibroblasts, counter-screen, dose response (AID 2010); type: functional, cell-based;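 note: cells exposed to compound for about 90 hours before reading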
# [5] = Trypanosoma cruzi growth suppression in host cells – NIH3T3 host cells, beta-gal luminescence, confirmation (AID 2044); type: functional, cell-based;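 note: intracellular parasites grown in NIH/3T3 mouse fibroblasts as host cells; luminescent beta-galactosidase reporter signal from transgenic T. cruzi replicating inside host cells; inhibitors lower the luminescence signal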
# [6] = target: Protein Wnt-3a (Mus musculus, UniProt P27467); assay: antagonism of Wnt3a pathway luciferase reporter – Wnt-LIGHT cells, luminescence, selectivity assay for Gli-SUFU antagonist project, dose response (AID 651570); type: functional; details: read-out: IC50_Mean;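 note: Wnt-LIGHT reporter cells stimulated with conditioned medium from Wnt3a-producing cells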
# [7] = blockers of CRF-binding protein–CRF-R2 complex – cell-based, uHTS hits, 384-well, dose response (AID 651639); type: functional, Homo sapiens; details: read-out: IC50_Mean
# [8] = target: T2, Corticotropin-releasing factor receptor 2/Corticotropin-releasing factor-binding protein (Homo sapiens, UniProt P24387+Q13324); assay: Dose Response confirmation of uHTS hits for small molecule antagonists of the CRF-binding protein and CRF-R2 receptor complex.; type: functional; details: read-out: IC50_Mean
# T2 sequence (Q13324 whole entry): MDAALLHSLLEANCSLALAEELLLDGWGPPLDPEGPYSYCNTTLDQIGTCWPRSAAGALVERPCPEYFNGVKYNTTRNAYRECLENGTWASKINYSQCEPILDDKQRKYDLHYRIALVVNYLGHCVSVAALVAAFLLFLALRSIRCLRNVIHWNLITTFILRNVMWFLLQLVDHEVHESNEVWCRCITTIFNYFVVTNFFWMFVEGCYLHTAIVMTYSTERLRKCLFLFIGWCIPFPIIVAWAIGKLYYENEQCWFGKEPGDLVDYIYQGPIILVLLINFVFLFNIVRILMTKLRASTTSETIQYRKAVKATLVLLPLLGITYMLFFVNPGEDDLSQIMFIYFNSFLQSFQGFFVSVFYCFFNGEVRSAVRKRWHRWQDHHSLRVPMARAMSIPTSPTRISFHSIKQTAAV
# T2 sequence (P24387 whole entry): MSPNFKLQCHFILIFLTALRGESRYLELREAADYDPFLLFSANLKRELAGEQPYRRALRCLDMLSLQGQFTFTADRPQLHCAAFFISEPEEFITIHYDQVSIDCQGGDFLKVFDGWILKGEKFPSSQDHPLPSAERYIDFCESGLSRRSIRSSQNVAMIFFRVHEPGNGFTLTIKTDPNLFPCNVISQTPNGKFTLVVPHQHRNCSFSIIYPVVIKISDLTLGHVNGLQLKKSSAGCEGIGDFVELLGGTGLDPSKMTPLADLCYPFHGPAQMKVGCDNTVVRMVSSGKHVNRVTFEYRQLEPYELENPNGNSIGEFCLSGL
# [9] = target: T3, Calpain-2 catalytic subunit (Sus scrofa, UniProt P43367); assay: m-calpain protease blockers, concentration series – biochemical, fluorogenic peptide substrate, dose response (AID 1420); type: functional
# T3 sequence (P43367 whole entry): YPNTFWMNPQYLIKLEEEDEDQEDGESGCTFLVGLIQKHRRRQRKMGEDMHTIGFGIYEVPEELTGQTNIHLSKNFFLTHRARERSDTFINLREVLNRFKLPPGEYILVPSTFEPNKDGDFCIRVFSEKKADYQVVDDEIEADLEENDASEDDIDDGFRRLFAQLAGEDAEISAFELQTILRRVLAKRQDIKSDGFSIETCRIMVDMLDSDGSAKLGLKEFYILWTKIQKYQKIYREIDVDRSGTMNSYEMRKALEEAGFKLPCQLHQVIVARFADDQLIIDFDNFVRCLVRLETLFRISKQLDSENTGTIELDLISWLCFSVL
# [10] = target: T2, Corticotropin-releasing factor receptor 2/Corticotropin-releasing factor-binding protein; assay: activators of CRF receptor 2 with binding protein – uHTS hits, confirmation (AID 602473); type: functional; details: read-out: EC50_Mean
# [11] = target: Mu-type opioid receptor (Homo sapiens, UniProt P35372); type: functional, cell-based;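 note: U2OS cells with beta-arrestin recruitment to OPRM1 by beta-gal complementation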
# [12] = target: 5-hydroxytryptamine receptor 2A (Mus musculus, UniProt P35363); type: functional, cell-based;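 note: CHO-K1 cells with tagged receptor and beta-arrestin; agonist potency measured as compound-induced activation of the receptor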
# [13] = cells; type: functional, cell-based
# [14] = cells; type: functional, cell-based; remark: listed apart in the source
# [15] = target: Glucose-6-phosphate 1-dehydrogenase (Homo sapiens, UniProt P11413); assay: inhibition of Homo sapiens G6PD, dose series – biochemical, fluorescence, selectivity assay for P. falciparum G6PD inhibitor project, dose response (AID 504792); type: functional
# [16] = tested on: Vero; assay: cells; type: functional, cell-based; details: Chlorocebus sabaeus
# [17] = target: Genome polyprotein (dengue virus type 2, UniProt P29990); assay: flavivirus cap methylation enzyme inhibition – biochemical, confirmation dose response, primary screen (AID 588689); type: functional
# [18] = target: Photoreceptor-specific nuclear receptor (Homo sapiens, UniProt Q9Y5X4); type: functional, cell-based;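 note: CHO-S cells with Gal4-NCOR and VP16-NR2E3 two-hybrid luciferase reporter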
# [19] = target: T4, Endoribonuclease toxin MazF (Escherichia coli K-12, UniProt P0AE70); assay: substrate-only fluorescence increase artefacts – biochemical, single-stranded RNase substrate, counter-screen for MazEF activator project, dose response (AID 588502); type: functional
# T4 sequence (P0AE70 whole entry): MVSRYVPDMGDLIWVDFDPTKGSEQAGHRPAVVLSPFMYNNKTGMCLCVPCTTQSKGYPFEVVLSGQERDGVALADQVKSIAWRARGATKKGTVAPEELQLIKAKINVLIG
# [20] = target: T4, Endoribonuclease toxin MazF; assay: activation of MazEF endoribonuclease cleavage – biochemical, fluorescence, single-stranded RNA substrate, uHTS hits, dose response (AID 588481); type: functional
# Chain of Mu-type opioid receptor (P35372 whole entry): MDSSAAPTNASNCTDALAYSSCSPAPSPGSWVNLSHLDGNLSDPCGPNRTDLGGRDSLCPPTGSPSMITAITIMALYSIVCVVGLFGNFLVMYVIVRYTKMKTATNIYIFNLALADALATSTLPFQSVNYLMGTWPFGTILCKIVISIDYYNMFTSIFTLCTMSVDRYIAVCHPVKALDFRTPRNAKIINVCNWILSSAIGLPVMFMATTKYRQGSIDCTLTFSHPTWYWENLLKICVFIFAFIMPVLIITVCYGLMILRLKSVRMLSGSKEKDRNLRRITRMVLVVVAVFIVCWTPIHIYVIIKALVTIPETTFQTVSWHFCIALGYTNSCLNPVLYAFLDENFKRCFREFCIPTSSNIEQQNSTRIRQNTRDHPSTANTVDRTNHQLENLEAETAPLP
# Chain of 5-hydroxytryptamine receptor 2A (P35363 whole entry): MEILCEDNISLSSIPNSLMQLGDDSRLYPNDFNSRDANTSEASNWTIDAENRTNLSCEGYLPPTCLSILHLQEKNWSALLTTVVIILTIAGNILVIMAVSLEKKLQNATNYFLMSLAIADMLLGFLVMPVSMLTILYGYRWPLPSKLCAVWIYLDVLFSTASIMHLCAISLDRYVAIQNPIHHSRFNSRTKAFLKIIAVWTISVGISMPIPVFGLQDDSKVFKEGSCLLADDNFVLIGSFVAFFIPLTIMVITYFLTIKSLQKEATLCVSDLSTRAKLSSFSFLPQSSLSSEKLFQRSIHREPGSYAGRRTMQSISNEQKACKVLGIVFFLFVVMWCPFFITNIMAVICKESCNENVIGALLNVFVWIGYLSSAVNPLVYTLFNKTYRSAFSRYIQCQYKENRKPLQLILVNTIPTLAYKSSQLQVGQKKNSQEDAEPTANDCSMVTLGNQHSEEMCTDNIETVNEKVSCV
# Chain of Protein Wnt-3a (P27467 whole entry): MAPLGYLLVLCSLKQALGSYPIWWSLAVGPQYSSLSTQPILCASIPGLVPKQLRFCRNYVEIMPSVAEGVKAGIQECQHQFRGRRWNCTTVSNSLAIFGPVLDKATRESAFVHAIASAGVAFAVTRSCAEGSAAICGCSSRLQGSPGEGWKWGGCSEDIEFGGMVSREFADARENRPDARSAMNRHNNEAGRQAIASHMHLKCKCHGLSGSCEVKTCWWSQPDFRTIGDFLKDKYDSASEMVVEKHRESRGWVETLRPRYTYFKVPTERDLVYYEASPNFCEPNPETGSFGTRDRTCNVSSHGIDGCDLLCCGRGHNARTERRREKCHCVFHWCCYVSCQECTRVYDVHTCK
# Chain of Glucose-6-phosphate 1-dehydrogenase (P11413 whole entry): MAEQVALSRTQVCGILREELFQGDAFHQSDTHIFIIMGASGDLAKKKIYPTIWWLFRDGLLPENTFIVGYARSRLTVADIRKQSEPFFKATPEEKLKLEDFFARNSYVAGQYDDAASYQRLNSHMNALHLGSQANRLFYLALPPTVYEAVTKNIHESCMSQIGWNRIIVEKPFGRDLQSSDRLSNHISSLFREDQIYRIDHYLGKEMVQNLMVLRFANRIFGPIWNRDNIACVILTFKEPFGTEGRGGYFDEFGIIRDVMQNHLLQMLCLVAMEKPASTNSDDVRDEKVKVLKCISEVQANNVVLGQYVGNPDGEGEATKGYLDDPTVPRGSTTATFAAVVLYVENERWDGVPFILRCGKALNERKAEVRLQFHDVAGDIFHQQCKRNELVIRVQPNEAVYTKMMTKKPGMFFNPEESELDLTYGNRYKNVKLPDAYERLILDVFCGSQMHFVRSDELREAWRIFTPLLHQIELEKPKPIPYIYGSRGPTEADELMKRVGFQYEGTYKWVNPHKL
# Chain of Genome polyprotein (P29990 2492-3391 limits assumed): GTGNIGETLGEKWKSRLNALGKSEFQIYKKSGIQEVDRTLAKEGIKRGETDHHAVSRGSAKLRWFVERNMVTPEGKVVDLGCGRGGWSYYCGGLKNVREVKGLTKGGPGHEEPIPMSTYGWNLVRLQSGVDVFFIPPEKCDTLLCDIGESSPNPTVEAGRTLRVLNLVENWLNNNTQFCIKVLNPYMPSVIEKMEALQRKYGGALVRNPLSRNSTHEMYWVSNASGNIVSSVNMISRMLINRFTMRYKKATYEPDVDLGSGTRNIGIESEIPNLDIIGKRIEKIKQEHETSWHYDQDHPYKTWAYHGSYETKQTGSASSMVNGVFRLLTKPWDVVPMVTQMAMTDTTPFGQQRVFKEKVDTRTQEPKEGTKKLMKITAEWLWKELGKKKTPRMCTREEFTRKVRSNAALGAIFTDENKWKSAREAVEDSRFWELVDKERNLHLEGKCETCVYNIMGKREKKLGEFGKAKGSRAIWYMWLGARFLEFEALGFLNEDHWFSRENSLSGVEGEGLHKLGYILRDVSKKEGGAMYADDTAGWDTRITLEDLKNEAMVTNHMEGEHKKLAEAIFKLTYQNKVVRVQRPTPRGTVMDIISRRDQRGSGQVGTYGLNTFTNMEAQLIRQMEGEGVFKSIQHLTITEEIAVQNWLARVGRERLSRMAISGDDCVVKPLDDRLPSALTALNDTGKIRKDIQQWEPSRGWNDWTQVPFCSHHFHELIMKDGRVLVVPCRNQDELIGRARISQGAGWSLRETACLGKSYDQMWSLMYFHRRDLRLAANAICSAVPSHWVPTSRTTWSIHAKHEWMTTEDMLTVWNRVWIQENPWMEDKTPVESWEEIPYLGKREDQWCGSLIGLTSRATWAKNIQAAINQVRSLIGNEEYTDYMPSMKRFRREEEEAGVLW
# Chain of Photoreceptor-specific nuclear receptor (Q9Y5X4 whole entry, the tested form may be a part): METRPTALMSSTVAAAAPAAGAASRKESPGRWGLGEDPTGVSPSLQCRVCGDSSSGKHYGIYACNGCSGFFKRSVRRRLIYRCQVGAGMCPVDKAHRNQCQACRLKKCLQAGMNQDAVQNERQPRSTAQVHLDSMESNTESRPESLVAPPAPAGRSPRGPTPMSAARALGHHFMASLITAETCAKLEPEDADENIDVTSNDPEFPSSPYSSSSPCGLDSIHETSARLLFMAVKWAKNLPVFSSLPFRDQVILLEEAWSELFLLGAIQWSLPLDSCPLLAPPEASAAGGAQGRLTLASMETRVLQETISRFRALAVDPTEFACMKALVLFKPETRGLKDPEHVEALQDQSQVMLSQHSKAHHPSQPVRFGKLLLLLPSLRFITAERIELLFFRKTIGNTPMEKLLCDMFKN
structure (smiles),measurement,setting,value
O=C(Cc1ccc(Br)cc1)Nc1cccc(S(=O)(=O)N2CCOCC2)c1,IC50,[1],3.47 µM (active)
same,IC50,[2],7 µM (active)
same,IC50,[3],82.3 µM (inactive)
CCOc1ccc(-n2c(-c3ccc(Cl)cc3)c[n+]3c2SCC3)cc1,EC50,[4],5.18 µM (active)
same,EC50,[5],0.86 µM (active)
same,IC50,[6],1.33 µM (active)
Cc1cc(C)c(NC(=O)/C(=C/c2ccccc2)c2ccccc2)c(C)c1,IC50,[7],> 20 µM (inactive)
same,IC50,[8],10.4 µM (active)
same,IC50,[9],> 50 µM (not active)
same,EC50,[10],> 53 µM (inactive)
O=[N+]([O-])c1ccc(OCC(O)CN2CCN(c3ccccc3F)CC2)cc1 (stereo unspecified),EC50,[11],92.5 µM (inactive)
same,IC50,[9],> 50 µM (not active)
same,EC50,[12],76.1 µM (inactive)
O=C(COc1cccc2ccccc12)Nc1ccc(Cl)cc1C(=O)O,EC50,[13],> 350 µM (not active)
same,EC50,[14],> 350 µM (not active)
same,IC50,[15],52.6 µM (inactive)
same,IC50,[16],> 25 µM (active)
same,IC50,[17],37.7 µM (active)
same,IC50,[18],5.31 µM (active)
CCN(CC)S(=O)(=O)c1cc(NC(=O)CN2CCN(c3ccccn3)CC2)ccc1C,EC50,[11],92.5 µM (inactive)
same,EC50,[12],0.761 µM (active)
Cc1nc(SCC(=O)c2cc3ccccc3oc2=O)c(C#N)c(-c2cccs2)c1C(=O)Nc1ccccc1,EC50,[19],> 99 µM (inactive)
same,EC50,[20],> 99 µM (inactive)
O=C(Nc1ccc(C(=O)O)cc1)/C(=C\C=C\c1ccccc1)NC(=O)c1ccc(Br)cc1,IC50,[1],29.6 µM (inactive)
same,IC50,[2],11.5 µM (inactive)
same,IC50,[3],83.3 µM (inactive)
